Experimental data as given in article PMC9102066, “Cloning and Functional Characterization of Dog OCT1 and OCT2: Another Step in Exploring Species Differences in Organic Cation Transporters” (International Journal of Molecular Sciences, 2022).
Counter-ions that a name gives are not always drawn.

Experiments:
dog OCT2 = assay: Uptake in HEK293 cells stably overexpressing dog OCT2; type: in vitro ADME
Text: (§1) Cells were passaged twice a week.
(§2) Intracellular substrate concentrations were quantified using LC-MS/MS.

human OCT1 = target: T1, human OCT1 (Homo sapiens, UniProt O15245); assay: Uptake in HEK293 cells stably overexpressing human OCT1; type: in vitro ADME; details: for CLint ± SEM, hOCT1: intrinsic clearance = vmax divided by KM for each experiment
T1 construct: expressed in transfected cells; host or cells: HEK293 (Flp-In system)
T1 sequence (O15245 1-554): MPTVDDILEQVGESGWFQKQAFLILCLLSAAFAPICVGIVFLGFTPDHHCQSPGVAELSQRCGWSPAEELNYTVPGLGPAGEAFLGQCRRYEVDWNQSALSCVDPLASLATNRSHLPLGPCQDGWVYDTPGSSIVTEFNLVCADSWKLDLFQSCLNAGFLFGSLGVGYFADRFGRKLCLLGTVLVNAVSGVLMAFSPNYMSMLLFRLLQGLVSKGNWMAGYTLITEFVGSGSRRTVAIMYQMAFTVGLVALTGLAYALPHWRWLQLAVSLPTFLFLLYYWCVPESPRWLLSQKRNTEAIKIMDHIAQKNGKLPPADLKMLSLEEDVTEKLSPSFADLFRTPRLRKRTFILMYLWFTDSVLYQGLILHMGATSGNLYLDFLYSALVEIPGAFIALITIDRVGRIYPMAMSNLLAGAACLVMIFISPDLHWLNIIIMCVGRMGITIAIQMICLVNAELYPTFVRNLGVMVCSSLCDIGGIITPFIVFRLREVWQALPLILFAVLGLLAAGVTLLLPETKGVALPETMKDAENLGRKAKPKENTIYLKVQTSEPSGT
Text: as §1, §2

mouse OCT1 = target: T2, mouse OCT1 (Mus musculus, UniProt O08966); assay: Uptake in HEK293 cells stably overexpressing mouse OCT1; type: in vitro ADME; details: intrinsic clearance = vmax divided by KM for each experiment
T2 construct: expressed in transfected cells; host or cells: HEK293 (Flp-In system)
T2 sequence (O08966 1-556): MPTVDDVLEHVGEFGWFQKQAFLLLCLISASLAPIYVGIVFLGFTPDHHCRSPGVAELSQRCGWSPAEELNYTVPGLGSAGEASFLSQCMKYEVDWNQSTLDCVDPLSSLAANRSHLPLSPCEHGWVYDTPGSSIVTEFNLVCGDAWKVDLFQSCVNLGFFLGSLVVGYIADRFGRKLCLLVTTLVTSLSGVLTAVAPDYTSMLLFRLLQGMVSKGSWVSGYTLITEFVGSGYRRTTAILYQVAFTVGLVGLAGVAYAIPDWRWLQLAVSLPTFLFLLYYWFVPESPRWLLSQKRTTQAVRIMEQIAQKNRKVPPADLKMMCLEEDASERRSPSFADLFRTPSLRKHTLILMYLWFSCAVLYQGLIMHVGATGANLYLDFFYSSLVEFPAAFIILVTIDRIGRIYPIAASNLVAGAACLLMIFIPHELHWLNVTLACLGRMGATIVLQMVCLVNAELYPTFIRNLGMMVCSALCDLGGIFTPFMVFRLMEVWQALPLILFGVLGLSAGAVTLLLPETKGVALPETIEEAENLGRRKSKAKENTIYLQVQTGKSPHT
Text: as §1, §2

human OCT2 = target: T3, human OCT2 (Homo sapiens, UniProt O15244); assay: Uptake in HEK293 cells stably overexpressing human OCT2; type: in vitro ADME; details: intrinsic clearance = vmax divided by KM for each experiment
T3 construct: expressed in transfected cells; host or cells: HEK293 (Flp-In system)
T3 sequence (O15244 1-555): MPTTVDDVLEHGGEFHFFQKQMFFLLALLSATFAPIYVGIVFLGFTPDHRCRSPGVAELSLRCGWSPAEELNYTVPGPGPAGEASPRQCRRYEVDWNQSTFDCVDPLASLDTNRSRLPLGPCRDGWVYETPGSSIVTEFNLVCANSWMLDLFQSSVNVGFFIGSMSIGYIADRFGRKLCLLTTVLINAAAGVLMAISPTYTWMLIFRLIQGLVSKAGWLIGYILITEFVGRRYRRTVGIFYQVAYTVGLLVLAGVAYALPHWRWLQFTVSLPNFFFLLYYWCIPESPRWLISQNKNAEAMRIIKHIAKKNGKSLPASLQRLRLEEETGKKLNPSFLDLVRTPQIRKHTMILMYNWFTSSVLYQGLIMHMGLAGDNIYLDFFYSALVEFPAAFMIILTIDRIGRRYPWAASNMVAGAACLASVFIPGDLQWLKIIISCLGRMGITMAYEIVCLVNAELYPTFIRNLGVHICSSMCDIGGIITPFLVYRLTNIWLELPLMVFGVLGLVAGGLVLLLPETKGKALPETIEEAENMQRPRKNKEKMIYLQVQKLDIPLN
Text: as §1, §2

dog OCT1 = assay: Uptake in HEK293 cells stably overexpressing dog OCT1; details: for Km at 2 min: dog; for CLint ± SEM, dOCT1: intrinsic clearance = vmax divided by KM for each experiment
Description: The total uptake is shown for the overexpressing and control cells (left hand side). OCT1-mediated uptake (right hand side) was calculated by subtracting the uptake of control cells (pcDNA5) from the uptake of OCT1-overexpressing cells. The means and standard errors of the means are shown for at least three independent experiments.
For generation and characterization, see the Supplementary Methods, Figure S7, and [29, 47]. Cells were cultured in Dulbecco’s Modified Eagle’s Medium (DMEM) supplemented with 10% FBS, 100 U/mL penicillin, and 100 µg/mL streptomycin at 37 °C and 5% CO2. Cells were passaged twice a week.
At 48 h prior to the experiment, 6 × 10^5 cells were seeded per well in 12-well plates pre-coated with poly-D-lysine.
Cellular uptake experiments were performed at 37 °C and pH 7.4 using Hanks’ Buffered Salt Solution (HBSS) supplemented with 10 mM HEPES (referred to as HBSS+ in the following). Cells were washed with 1 mL pre-warmed (37 °C) HBSS+ and uptake was initiated by adding 400 µL of pre-warmed HBSS+ containing the substrate. Uptake was allowed for exactly 2 min and stopped by adding 2 mL ice-cold HBSS+. Cells were washed twice with 2 mL ice-cold HBSS+ then lysed with 80% acetonitrile supplemented with internal standard. The intracellularly accumulated substrate concentrations were measured using LC-MS/MS as described in the following and normalized to the amount of total protein in the samples as measured using the bicinchoninic acid assay.
Intracellular substrate concentrations were quantified using LC-MS/MS. […] The pellet was reconstituted with 200 µL 0.1% formic acid and between 5 and 10 µL was injected into the LC-MS/MS system (Table S2).
An API4000 QTRAP tandem mass spectrometer with ESI interface (AB SCIEX, Darmstadt, Germany) coupled to a Shimadzu Nexera X2 UHPLC system with LC 30AD pumps and SiL 30AC autosampler (Shimadzu, Duisburg, Germany) was used for analysis.
Intrinsic clearance CLint was calculated by dividing vmax by KM for each experiment. Kinetic parameters were compared between OCT1 orthologs using an ANOVA followed by Tukey’s honestly significant difference post hoc comparisons in SPSS Statistics version 28 (SPSS Inc., IBM, Chicago, IL, USA).

SMILES	fold lower transport by dog OCT2 compared to human OCT2 (dog OCT2; dog OCT2 versus human OCT2)	uptake by dog OCT2 cells compared to control cells, in words (dog OCT2; especially at low concentrations, data could not be fitted to the Michaelis–Menten equation)	CLint ± SEM, hOCT1 (human OCT1)	CLint ± SEM, mOCT1 (mouse OCT1)	CLint ± SEM, hOCT2 (human OCT2)	vmax ± SEM, dOCT1 (dog OCT1; OCT1-mediated uptake, HEK293, 2 min, 37 °C, pH 7.4, control cells subtracted)	difference in uptake kinetics between dog and human OCT1, in words (dog OCT1; dog OCT1 versus human OCT1)	fold higher transport capacity by dog than mouse OCT1 (dog OCT1; dog OCT1 versus mouse OCT1)	fold lower affinity by dog than mouse OCT1 (dog OCT1; dog OCT1 versus mouse OCT1)	Km at 2 min (dog OCT1; HEK293 cells stably overexpressing dog OCT1, pH 7.4)	CLint ± SEM, dOCT1 (dog OCT1)	CLint ± SEM, dOCT1 (dog OCT1; listed as butylscopolamine)	fold higher affinity (human OCT1 relative to dog OCT1, as worded in the discussion) (human OCT1; discussion wording, direction not spelled out)	CLint ± SEM, hOCT1 (human OCT1; listed as fenoterol)	CLint ± SEM, mOCT1 (mouse OCT1; listed as fenoterol)	fold lower affinity (higher KM) by dog OCT1 than human OCT1 (dog OCT1; dog OCT1 versus human OCT1)	Km at 2 min (dog OCT1; pH 7.4)	CLint ± SEM, dOCT1 (dog OCT1; listed as fenoterol)
CCCC[N+]1(C)[C@@H]2C[C@@H](OC(=O)[C@H](CO)c3ccccc3)C[C@H]1[C@@H]1O[C@@H]12 (stereo partly shown) [Butylscopolamine, butylscopolamine bromide]	10 fold	only a slight increase	84.4 ± 6.76 µL × min^−1 × mg Protein^−1	131 ± 25.6 µL × min^−1 × mg Protein^−1	81.6 ± 2.16 µL × min^−1 × mg Protein^−1	1383 ± 112 pmol × min^−1 × mg Protein^−1	no significant differences	1.8 fold	2.9 fold	18.7 ± 3.32 µM	80.5 ± 12.3 µL × min^−1 × mg Protein^−1	122 µL × min^−1 × mg Protein^−1	–	–	–	–	–	–
CC(Cc1ccc(O)cc1)NCC(O)c1cc(O)cc(O)c1 (stereo not shown) [Fenoterol, Fenoterol hydrochloride]	–	–	88.3 ± 3.85 µL × min^−1 × mg Protein^−1	88.5 ± 15.5 µL × min^−1 × mg Protein^−1	28.0 ± 0.95 µL × min^−1 × mg Protein^−1	–	–	–	–	–	80.7 ± 7.76 µL × min^−1 × mg Protein^−1	–	14.3 fold	88.3 µL × min^−1 × mg Protein^−1	88.5 µL × min^−1 × mg Protein^−1	14.3 fold	16.8 ± 1.09 µM	80.7 µL × min^−1 × mg Protein^−1
